≈ marks a conversion by molar mass, not a printed value. Read-outs that look alike come from different tables or passages of the source.
Assays:
Format in all cases: physicochemical
[1] = Solid stability of crystal forms (80° C., light exposure, 25° C./60% RH, 40° C./75% RH); purity by liquid chromatography and XRPD of the solids
Description: A certain amount of API and malate crystal form VII-A were weighed and added into a liquid phase vial, and a total of 9 parallels were prepared. The 9 parallels were placed separately in 80° C. (open); 25° C., 60% RH (open); 40° C., 75% RH (open); and light stability box closed). The stabilities under conditions of: 80° C. for one day, light exposure for 10 days, as well as 25° C., 60% RH and 40° C., 75% RH for one and two weeks were tested, and the XRPD of the solids were measured.
A certain amount of crystal form B was weighed and added into a liquid phase vial, and a total of 9 parallels were prepared. 9 parallels were placed separately in 80° C.; 25° C., 60% RH, 40° C., 75% RH; and light stability boxe.

[2] = Solubility at 37° C. in buffer solutions with different pH (about 10 mg in 1 ml, 2 h and 24 h); filtrate concentration and pH, XRPD of remaining solid; conditions: for solubility at 2 h / solubility at 24 h: thermodynamic from solid
Description: Approximately 10 mg of malate crystal form VII-A and free base Form A were weighed separately, and 1 ml of buffer solutions with different pH were added to make the solution supersaturated, and the mixtures were stirred at 37° C. for 2 h and 24 hours. The samples were filtered, and the filtrates were measured to determine the concentration and pH value, and the remaining solid was subjected to XRPD determination. The specific results were as follows: […]

[3] = Dynamic moisture adsorption (DVS), hygroscopicity; conditions: DVS; for moisture absorption weight gain: 80% RH humidity
Description: DSV pattern determination method: Dynamic moisture adsorption was performed using Intrinsic DVS. In step mode, the sample is subjected to loop testing at a relative humidity of 0-90%. The sample is analyzed at 10% RH. The dm/dt is set to 0.002 to achieve equilibrium between the sample and the room environment.
Approximately 250 mg of API was weighed and added into a 4 ml glass vial, and 2.5 ml of ethyl acetate was added. The mixture was stirred overnight under magnetic stirring at 50° C., cooled to room temperature, and then filtered, and the obtained solid was dried in vacuum overnight in a 50° C. oven. The resulting solid was free base crystal form Form B. The free base crystal form Form B was subjected to various characterization.

[4] = Competitive pulping of API (free base Form A) and Form B in saturated DCM or water solution at 50° C., XRPD
Description: A saturated solution of API (free base Form A) in DCM and water was prepared. Approximately 10 mg of API (free base Form A) and free base crystal form Form B was weighed respectively and added into a 4 ml glass bottle, and 1 mL of the saturated solution was added. […] The resulting solid was subjected to XRPD testing.

[5] = 25° C., 60% RH, 1 week, listed as API
[6] = 25° C., 60% RH, 2 weeks, listed as API
[7] = 40° C., 75% RH, 1 week, listed as API
[8] = 40° C., 75% RH, 2 weeks, listed as API
[9] = Light control, 10 days, listed as API
[10] = Light exposure, 10 days, listed as API

Degradation (%) ([1]; 25° C., 60% RH (open), 1 week): 0.03%
Purity (%) ([1]; 25° C., 60% RH (open), 1 week): 95.50%
Crystal form ([1]; 25° C., 60% RH (open), 1 week, XRPD): Unchanged
Degradation (%) ([1]; 25° C., 60% RH (open), 2 weeks): 0.04%
Purity (%) ([1]; 25° C., 60% RH (open), 2 weeks): 95.49%
Crystal form ([1]; 25° C., 60% RH (open), 2 weeks, XRPD): Unchanged
Crystal form ([1]; 25° C., 60% RH, 1 week): Unchanged
Degradation [1, 5]: 0.03%
Purity [1, 5]: 95.50%
Crystal form ([1]; 25° C., 60% RH, 2 weeks): Unchanged
Degradation [1, 6]: 0.04%
Purity [1, 6]: 95.49%
Degradation (%) ([1]; 40° C., 75% RH (open), 1 week): 0.04%
Purity (%) ([1]; 40° C., 75% RH (open), 1 week): 95.49%
Crystal form ([1]; 40° C., 75% RH (open), 1 week, XRPD): Unchanged
Degradation (%) ([1]; 40° C., 75% RH (open), 2 weeks): 2.93%
Purity (%) ([1]; 40° C., 75% RH (open), 2 weeks): 92.60%
Crystal form ([1]; 40° C., 75% RH (open), 2 weeks, XRPD): Unchanged
Crystal form ([1]; 40° C., 75% RH, 1 week): Unchanged
Degradation [1, 7]: 0.04%
Purity [1, 7]: 95.49%
Crystal form ([1]; 40° C., 75% RH, 2 weeks): Unchanged
Degradation [1, 8]: 2.93%
Purity [1, 8]: 92.60%
Degradation (%) ([1]; 80° C. (open), 1 day): 0.14%
Purity (%) ([1]; 80° C. (open), 1 day): 95.39%
Crystal form ([1]; 80° C. (open), 1 day, XRPD): changed
Crystal form ([1]; 80° C., 1 day, listed as API): changed
Degradation ([1]; 80° C., 1 day, listed as API): 0.14%
Purity ([1]; 80° C., 1 day, listed as API): 95.39%
Degradation (%) ([1]; Light contral, 10 days): 0.02%
Purity (%) ([1]; Light contral, 10 days): 95.51%
Crystal form ([1]; Light contral, 10 days, XRPD): Unchanged
Crystal form ([1]; Light control, 10 days): Unchanged
Degradation [1, 9]: 0.02%
Purity [1, 9]: 95.51%
Degradation (%) ([1]; Light exposure, 10 days): 7.89%
Purity (%) ([1]; Light exposure, 10 days): 88.14%
Crystal form ([1]; Light exposure, 10 days, XRPD): changed
Crystal form [1, 10]: changed
Degradation [1, 10]: 7.89%
Purity [1, 10]: 88.14%
Purity (%) ([1]; initial): 95.53%
Purity ([1]; initial, listed as API): 95.53%
Degradation ([1]; light exposure and 40° C., 75% RH): varying degrees of degradation
solubility at 2 h ([2]; buffer solution pH 1.2, 37 °C, pH 1.2, simulated gastric fluid, medium pH 1.2, 2 h, read-out: Solubility at 37° C.): > 10 mg/mL
solubility at 24 h ([2]; buffer solution pH 1.2, 37 °C, pH 1.2, simulated gastric fluid, medium pH 1.2, 24 h, read-out: Solubility at 37° C.): > 10 mg/mL
solubility at 2 h ([2]; buffer solution pH 3.0, 37 °C, pH 3, aqueous buffer, medium pH 3.0, 2 h, read-out: Solubility at 37° C.): > 10 mg/mL
solubility at 24 h ([2]; buffer solution pH 3.0, 37 °C, pH 3, aqueous buffer, medium pH 3.0, 24 h, read-out: Solubility at 37° C.): > 10 mg/mL
solubility at 2 h ([2]; buffer solution pH 4.5, 37 °C, pH 4.5, aqueous buffer, medium pH 4.5, 2 h, read-out: Solubility at 37° C.): > 10 mg/mL
solubility at 2 h ([2]; buffer solution pH 4.5, 37 °C, pH 4.5, aqueous buffer, medium pH 4.5, 2 h, read-out: Solubility at 37° C. (mg/ml) 2 h): > 10 mg/mL
solubility at 24 h ([2]; buffer solution pH 4.5, 37 °C, pH 4.5, aqueous buffer, medium pH 4.5, 24 h, read-out: Solubility at 37° C.): > 10 mg/mL
solubility at 24 h ([2]; buffer solution pH 4.5, 37 °C, pH 4.5, aqueous buffer, medium pH 4.5, 24 h, read-out: Solubility at 37° C. (mg/ml) 24 h): > 10 mg/mL
pH (24 h) ([2]; filtrate, medium FaSSIF): 5.434
pH (24 h) ([2]; filtrate, medium FeSSIF): 4.992
pH (24 h) ([2]; filtrate, medium H2O): 4.607
pH (24 h) ([2]; filtrate, medium SGF): 1.494
pH (24 h) ([2]; filtrate, medium pH 1.2): 1.463
pH (24 h) ([2]; filtrate, medium pH 3.0): 3.683
pH (24 h) ([2]; filtrate, medium pH 4.5): 4.520
pH (24 h) ([2]; filtrate, medium pH 6.8): 6.180
pH (24 h) ([2]; filtrate, medium pH 7.4): 6.664
Solubility at 37° C. (mg/ml) 2 h ([2]; medium FaSSIF, 2 h): 1.234 mg/mL (≈ 2.15 mM)
Solubility at 37° C. ([2]; medium FaSSIF, 2 h, listed as API): 1234 µg/mL (≈ 2.15 mM)
Solubility at 37° C. (mg/ml) 24 h ([2]; medium FaSSIF, 24 h): 0.983 mg/mL (≈ 1.71 mM)
Solubility at 37° C. ([2]; medium FaSSIF, 24 h, listed as API): 983 µg/mL (≈ 1.71 mM)
Crystal form ([2]; medium FaSSIF, XRPD of remaining solid, listed as API): Form A
pH (24 h) ([2]; medium FaSSIF, filtrate, 37° C., listed as API): 5.434
Solubility at 37° C. ([2]; medium FeSSIF, 2 h): >10000 µg/mL
Solubility at 37° C. (mg/ml) 2 h ([2]; medium FeSSIF, 2 h): >10 mg/mL
Solubility at 37° C. ([2]; medium FeSSIF, 24 h): >10000 µg/mL
Solubility at 37° C. (mg/ml) 24 h ([2]; medium FeSSIF, 24 h): >10 mg/mL
pH (24 h) ([2]; medium FeSSIF, filtrate, 37° C., listed as API): 4.992
Solubility at 37° C. (mg/ml) 2 h ([2]; medium H2O, 2 h): 0.0365 mg/mL (≈ 0.0635 mM)
Solubility at 37° C. ([2]; medium H2O, 2 h, listed as API): 36.5 µg/mL (≈ 0.0635 mM)
Solubility at 37° C. (mg/ml) 24 h ([2]; medium H2O, 24 h): 0.0046 mg/mL (≈ 0.008 mM)
Solubility at 37° C. ([2]; medium H2O, 24 h, listed as API): 4.6 µg/mL (≈ 0.008 mM)
Crystal form ([2]; medium H2O, XRPD of remaining solid, listed as API): Form A
pH (24 h) ([2]; medium H2O, filtrate, 37° C., listed as API): 4.607
Solubility at 37° C. ([2]; medium SGF, 2 h): >10000 µg/mL
Solubility at 37° C. (mg/ml) 2 h ([2]; medium SGF, 2 h): >10 mg/mL
Solubility at 37° C. ([2]; medium SGF, 24 h): >10000 µg/mL
Solubility at 37° C. (mg/ml) 24 h ([2]; medium SGF, 24 h): >10 mg/mL
pH (24 h) ([2]; medium SGF, filtrate, 37° C., listed as API): 1.494
pH (24 h) ([2]; medium pH 1.2, filtrate, 37° C., listed as API): 1.463
pH (24 h) ([2]; medium pH 3.0, filtrate, 37° C., listed as API): 3.683
pH (24 h) ([2]; medium pH 4.5, filtrate, 37° C., listed as API): 4.520
Solubility at 37° C. (mg/ml) 2 h ([2]; medium pH 6.8, 2 h): 0.294 mg/mL (≈ 0.512 mM)
Solubility at 37° C. ([2]; medium pH 6.8, 2 h, listed as API): 294 µg/mL (≈ 0.512 mM)
Solubility at 37° C. (mg/ml) 24 h ([2]; medium pH 6.8, 24 h): 0.271 mg/mL (≈ 0.471 mM)
Solubility at 37° C. ([2]; medium pH 6.8, 24 h, listed as API): 271 µg/mL (≈ 0.471 mM)
Crystal form ([2]; medium pH 6.8, XRPD of remaining solid, listed as API): Form A
pH (24 h) ([2]; medium pH 6.8, filtrate, 37° C., listed as API): 6.180
Solubility at 37° C. (mg/ml) 2 h ([2]; medium pH 7.4, 2 h): 0.012 mg/mL (≈ 0.0209 mM)
Solubility at 37° C. ([2]; medium pH 7.4, 2 h, listed as API): 12 µg/mL (≈ 0.0209 mM)
Solubility at 37° C. (mg/ml) 24 h ([2]; medium pH 7.4, 24 h): 0.016 mg/mL (≈ 0.0278 mM)
Solubility at 37° C. ([2]; medium pH 7.4, 24 h, listed as API): 16 µg/mL (≈ 0.0278 mM)
Crystal form ([2]; medium pH 7.4, XRPD of remaining solid, listed as API): Form A
pH (24 h) ([2]; medium pH 7.4, filtrate, 37° C., listed as API): 6.664
solubility at 2 h ([2]; pH 1.2 buffer solution, 37 °C, pH 1.2, simulated gastric fluid, medium pH 1.2, 2 h, read-out: Solubility at 37° C. (mg/ml) 2 h): > 10 mg/mL
solubility at 24 h ([2]; pH 1.2 buffer solution, 37 °C, pH 1.2, simulated gastric fluid, medium pH 1.2, 24 h, read-out: Solubility at 37° C. (mg/ml) 24 h): > 10 mg/mL
solubility at 2 h ([2]; pH 3.0 buffer solution, 37 °C, pH 3, aqueous buffer, medium pH 3.0, 2 h, read-out: Solubility at 37° C. (mg/ml) 2 h): > 10 mg/mL
solubility at 24 h ([2]; pH 3.0 buffer solution, 37 °C, pH 3, aqueous buffer, medium pH 3.0, 24 h, read-out: Solubility at 37° C. (mg/ml) 24 h): > 10 mg/mL
Crystal form ([2]; remaining solid, medium FaSSIF, XRPD): Free base
Crystal form ([2]; remaining solid, medium H2O, XRPD): Free base
Crystal form ([2]; remaining solid, medium pH 6.8, XRPD): Free base
Crystal form ([2]; remaining solid, medium pH 7.4, XRPD): Free base
moisture absorption weight gain [3]: 1.05%
moisture absorption weight gain ([3]; listed as API): 11.12%
hygroscopicity [3]: slight hygroscopicity
solid crystal form obtained by competitive pulping ([4]; API and Form B together in DCM, 50° C., 3 days, XRPD): tended to approach Form L
appearance after competitive pulping ([4]; API and Form B together in DCM, after 5 days of beating): became oily
crystal form obtained by competitive pulping ([4]; API and Form B together in water, 50° C., 3 days, XRPD): a mixture of Form B and API
XRPD results ([4]; competitive pulping of API and Form B, DCM, 50° C., 3 days): Form K
SMILES: CCc1nc2c(N)ncc(-c3ccc(N4CCC(N5CCN(CC)CC5)CC4)c(OC)c3)c2nc1NC1CCOCC1 [Free base Form A, 3-ethyl-8-(4-(4-(4-ethylpiperazin-1-yl)piperidin-1-yl)-3-methoxyphenyl)-N2-(tetrahydro-2H-pyran-4-yl) pyridino [3,4-b]pyrazine-2,5-diamine]
